Results on 33 molecules are retold here after ChEMBL document CHEMBL1166016, “Design, synthesis, and biological evaluation of novel coxsackievirus B3 inhibitors” (Bioorg Med Chem, 2010).

The EC90 is the point of the concentration-response curve where the effect stands at 90%. The term EC50 denotes the concentration that produces a half-maximal response. Broadly, the CC50 is the concentration giving 50% cytotoxicity.

One series concerns Coxsackievirus B3. As to the kind of experiment: Antiviral activity against Coxsackievirus B3 infected in african green monkey […] assessed as inhibition of virus-induced cytopathic effect after 3 days by MTS assay. Type of series: functional, organism-based. The conditions noted are these: for EC50: Enterovirus B, 72 h.
Series [1] is described as follows: Cytotoxicity against african green monkey Vero cells after 3 days by MTS assay. Type of series: cell-based. Conditions: chlorocebus sabaeus.

Each structure is given as a SMILES string. Bounds are passed on as bounds.

`Clc1ncnc2c1ncn2[C@H]1C[C@H]2C[C@@H]1c1cc3ccccc3cc12` (relative stereo): in the series with Coxsackievirus B3, the EC90 was above 50 µM and the EC50 is above 50 µM. The same molecule had a CC50 at 72 h in series [1] above 50 µM.
Regarding `O[C@@H]1C[C@H]2C[C@@H]1[C@@H](n1cnc3c(Cl)ncnc31)C2` (relative stereo), the EC50 with Coxsackievirus B3 turned out to be 1.1 µM. The same molecule returned a CC50 at 72 h in series [1] of 47.9 µM.
As for `O[C@H]1C[C@H]2C[C@@H]1C[C@@H]2n1cnc2c(Cl)ncnc21` (relative stereo), the EC50 with Coxsackievirus B3 is 2.44 µM. In series [1], the CC50 at 72 h was above 50 µM.
Consider `FC1(F)C[C@H]2C[C@H]1C[C@@H]2n1cnc2c(Cl)ncnc21` (relative stereo), for which the EC50 in the series on Coxsackievirus B3 amounted to 1 µM. The molecule further came in with a CC50 at 72 h in series [1] above 50 µM.
Taken in the same sequence, the figures for `Clc1ncnc2c1ncn2[C@H]1C[C@H]2C[C@@H]1C[C@@H]2n1cnc2c(Cl)ncnc21` (relative stereo) were 22.5 µM and above 50 µM.
In the case of `O[C@@H]1[C@@H]2C[C@H]([C@@H]1O)[C@@H](n1cnc3c(Cl)ncnc31)C2` (relative stereo), in the series with Coxsackievirus B3, the EC90 was determined as 36.52 µM and the EC50 is 2.26 µM. This molecule also gave a CC50 at 72 h in series [1] above 50 µM.
For `Clc1ncnc2c1ncn2[C@H]1C[C@@H]2C=C[C@H]1C2` (relative stereo), in the series with Coxsackievirus B3, the EC90 came to 5.87 µM and the EC50 is 2.43 µM. The CC50 at 72 h in series [1] is above 50 µM.
Taken in the same sequence, the figures for `Clc1ncnc2c1ncn2[C@H]1C[C@H]2C[C@@H]1c1ccccc12` (relative stereo) were above 50 µM, 0.66 µM and above 50 µM.
As for `Clc1ncnc2c1ncn2[C@@H]1C[C@@H]2C[C@H]1[C@@H]1O[C@@H]21` (relative stereo), in the series with Coxsackievirus B3, the EC90 stood at 3.46 µM and the EC50 came out at 1.03 µM. In series [1], this molecule yielded a CC50 at 72 h above 50 µM.
With `OCC1C2COC3C2OC1C3n1cnc2c(Cl)ncnc21` (stereo not drawn), the EC50 in the series on Coxsackievirus B3 was 1.86 µM. Further, in series [1], the CC50 at 72 h was above 50 µM.
Taken in the same sequence, the figures for `OCC1CC2CC1C(n1cnc3c(Cl)ncnc31)C2` (stereo not drawn) were 0.98 µM and above 50 µM.
As to `CC1(C)[C@H]2CC[C@H](C2)[C@@H]1n1cnc2c(Cl)ncnc21` (relative stereo), in the series with Coxsackievirus B3, the EC90 was above 50 µM and the EC50 was 10.9 µM. Besides, the CC50 at 72 h in series [1] was above 50 µM.
With `F[C@H]1C[C@H]2C[C@@H]1C[C@@H]2n1cnc2c(Cl)ncnc21` (relative stereo), in the series with Coxsackievirus B3, the EC90 stood at 1.96 µM and the EC50 came to 0.95 µM. Also, in series [1], the CC50 at 72 h is above 50 µM.
Regarding `ClCC1C2COC3C2OC1C3n1cnc2c(Cl)ncnc21` (stereo not drawn), the EC50 in the series on Coxsackievirus B3 turned out to be 0.88 µM. In series [1], this molecule had a CC50 at 72 h above 50 µM.
As for `Clc1ncnc2c1ncn2[C@H]1C[C@H]2C[C@@H]1[C@H](c1ccccc1)C2` (relative stereo), the concentration for a half-maximal effect (EC50) with Coxsackievirus B3 worked out at 2.98 µM. Further, in series [1], the CC50 at 72 h was 13.4 µM.
Taken in the same sequence, the figures for `Clc1ncnc2c1ncn2[C@H]1C2C3C[C@H]1C[C@H]32` (relative stereo) were 1.52 µM and 43.9 µM.
Taken in the same sequence, the figures for `O=C1C[C@@H]2C[C@H]1[C@H](n1cnc3c(Cl)ncnc31)C2` (relative stereo) were 1.57 µM and above 50 µM.
Take `C[C@@H](NC(=O)c1cccc(-c2cnc(-c3cc4ccccc4cn3)[nH]2)c1)c1ccc(F)cc1`: the EC50 with Coxsackievirus B3 was 1.2 µM. Also, the CC50 at 72 h in series [1] is above 50 µM.
Turning to `FC1(F)C[C@@H]2C[C@@H](n3cnc4c(Cl)ncnc43)[C@H]1C2` (relative stereo), in the series with Coxsackievirus B3, the EC90 came out at 34.4 µM and the EC50 is 1.16 µM. In addition, the CC50 at 72 h in series [1] is above 50 µM.
Regarding `ClCC1C2COC3C2CC1C3n1cnc2c(Cl)ncnc21` (stereo not drawn), the EC50 with Coxsackievirus B3 was 1 µM. This molecule also returned a CC50 at 72 h in series [1] above 50 µM.
Taken in the same sequence, the figures for `OCC1CC2CC1CC2n1cnc2c(Cl)ncnc21` (stereo not drawn) were 0.91 µM and above 50 µM.
Take `CC1(C)[C@@H]2CC[C@@]1(C)[C@H](n1cnc3c(Cl)ncnc31)C2` (relative stereo): in the series on Coxsackievirus B3, the EC90 stood at 36.26 µM and the EC50 was found to be 3.47 µM. For the same molecule, in series [1], the CC50 at 72 h is above 50 µM.
For `Clc1ncnc2c1ncn2[C@@H]1CC2CC1[C@@H](n1cnc3c(Cl)ncnc31)C2`, the EC50 in the series with Coxsackievirus B3 worked out at 7.83 µM. The molecule further registered a CC50 at 72 h in series [1] above 50 µM.
`O=C1C[C@H]2C[C@@H]1C[C@@H]2n1cnc2c(Cl)ncnc21` (relative stereo): in the series on Coxsackievirus B3, the EC90 came out at 1.78 µM and the EC50 was 0.9 µM. This molecule had a CC50 at 72 h in series [1] above 50 µM.
Taken in the same sequence, the figures for `Clc1ncnc2c1ncn2C[C@H]1C[C@@H]2C=C[C@H]1C2` (relative stereo) were 8.49 µM, 3.58 µM and above 50 µM.
`Clc1ncnc2c1ncn2[C@H]1C[C@H]2C[C@@H]1C[C@@H]2c1ccccc1` (relative stereo): in the series on Coxsackievirus B3, the EC50 amounted to 5.72 µM. Moreover, half-maximal cytotoxicity in series [1] (CC50 at 72 h) was put at 17 µM.
Taken in the same sequence, the figures for `Clc1ncnc2c1ncn2[C@H]1C[C@H]2C[C@@H]1[C@@H]1CCC[C@H]21` (relative stereo) were 1.9 µM and 43.4 µM.
For `Clc1ncnc2c1ncn2C[C@@H]1C[C@H]2CC[C@@H]1C2` (relative stereo), in the series on Coxsackievirus B3, the EC90 came out at 9.43 µM and the EC50 was 3.83 µM. Moreover, the CC50 at 72 h in series [1] is above 50 µM.
Regarding `Clc1ncnc2c1ncn2[C@@H]1[C@@H]2C[C@@H]3[C@H]1CO[C@@H]3C2` (relative stereo), the EC50 in the series on Coxsackievirus B3 worked out at 1 µM. For the same molecule, in series [1], the CC50 at 72 h was above 50 µM.
Taken in the same sequence, the figures for `Clc1ncnc2c1ncn2[C@H]1[C@@H]2C[C@@H]3CO[C@H]1[C@H]3C2` (relative stereo) were 1.27 µM and above 50 µM.
Taken in the same sequence, the figures for `O[C@@H]1C[C@H]2C[C@@H]1[C@H](n1cnc3c(Cl)ncnc31)C2` (relative stereo) were 1.3 µM and above 50 µM.
Taken in the same sequence, the figures for `O[C@H]1C[C@@H]2C[C@@H]1C[C@H]2n1cnc2c(Cl)ncnc21` (relative stereo) were 1.05 µM and above 50 µM.
`OCC1C2COC3C2CC1C3n1cnc2c(Cl)ncnc21` (stereo not drawn): the EC50 in the series with Coxsackievirus B3 was found to be 1.13 µM. In addition, the cytotoxic concentration (CC50) at 72 h in series [1] was above 50 µM.
